Experiment: Solubility / dispersibility of the product in water
Type: physicochemical
Conditions: general statement in the description
Method: A two liter, three necked flask equipped with a condenser, stirrer, thermometer, and distillation head was charged with (i) 136 grams of methyltrimethoxysilane, (ii) 186 grams of monoehtylene glycol, and (iii) 0.6 grams of tetra isopropyltitanate was added into the mixture to facilitate a transesterification reaction to provide a non-ionic water soluble organosilane. This mixture was heated to 120° C. for two hours, during which 92 grams of methanol were recovered after which the reaction was deemed complete.
A two liter, three necked flask equipped with a condenser, stirrer, thermometer, and distillation head was charged with (i) 164 grams of methyltrimethoxysilane, (ii) 186 grams of monoehtylene glycol, and (iii) 0.6 grams of tetra isopropyltitanate was added into the mixture to facilitate a transesterification reaction to provide a non-ionic water soluble organosilane. This mixture was heated to 120° C. for two hours, during which 95 grams of methanol were recovered after which the reaction was deemed complete.

CO[Si](C)(OC)OC [methyltrimethoxysilane (MTMS), methyltrimethoxysilane]
water solubility, in words (description): insoluble in water

From patent US20220017778A1, “Methods of Treating Inorganic Surfaces” (ZYDEX INC., priority 2018, published 2022)
